This note sets out measurements from PubChem BioAssay (NCI).

Test systems include BT-549 breast; CAKI-1 renal; COLO 205 colon; HOP-92 NSCLC; MDA-N; NCI-H522 lung; OVCAR-3 ovarian; OVCAR-5 ovarian; SK-MEL-2 melanoma; SK-OV-3 ovarian.
Common to all, as to test: NCI anticancer screen, dose series, 48 h

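Growth conditions: 96-well plates. Treatment: test compound, 48 hours, 5 concentrations. Analysis: linear interpolation between bracketing concentrations; unreached endpoints set to highest concentration. TGI marks complete inhibition of growth.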

Regarding `CN1/C(=C/C=C/C=C/C=C2C(=O)c3ccccc3C2=O)C(C)(C)c2ccccc21`, the TGI in the assay on BT-549 breast was 81 µM; in the assay on CAKI-1 renal, greater than 100 µM; in the assay on COLO 205 colon it was greater than 100 µM; in the assay on HOP-92 NSCLC, 58 µM; in the assay on MDA-N, greater than 100 µM; with NCI-H522 lung, greater than 100 µM. Further, the TGI with OVCAR-3 ovarian is greater than 100 µM; in the assay with OVCAR-5 ovarian, greater than 100 µM; with SK-MEL-2 melanoma, 66.3 µM; with SK-OV-3 ovarian it was greater than 100 µM.
`NS(=O)(=O)c1nc(S(=O)(=O)O)c2[nH]cnc2n1`: the TGI in the assay on BT-549 breast, in the assay with CAKI-1 renal, in the assay with COLO 205 colon, with HOP-92 NSCLC, with MDA-N and in the assay with NCI-H522 lung was greater than 100 µM throughout. Further, the TGI in the assay on OVCAR-3 ovarian, with OVCAR-5 ovarian, with SK-MEL-2 melanoma and in the assay with SK-OV-3 ovarian was greater than 100 µM each time.
For the compound `C/C=C(\C)C(=O)OC1CC(OC(C)=O)C2(C(=O)OC)COC3C2C1(C)C1C2(C(=O)OC)OCC1(C3O)C1(O)C3CC(C4(O)C=COC4O3)C1(C)O2` (stereo not given), the TGI in the assay on BT-549 breast, in the assay on CAKI-1 renal, in the assay with COLO 205 colon, in the assay on HOP-92 NSCLC, with MDA-N and with NCI-H522 lung was greater than 100 µM each time. The TGI with OVCAR-3 ovarian, with OVCAR-5 ovarian, in the assay with SK-MEL-2 melanoma and in the assay with SK-OV-3 ovarian was greater than 100 µM throughout.
Turning to `CC(=O)n1cc(C2CC23N=C(c2ccccc2)OC3=O)c2ccccc21` (stereo not given), the TGI in the assay with BT-549 breast was determined as 30.3 µM; in the assay on CAKI-1 renal, 36 µM; in the assay on COLO 205 colon, 44.8 µM; in the assay on HOP-92 NSCLC, 52.5 µM; in the assay on MDA-N, 81.7 µM; in the assay with NCI-H522 lung it was 37.3 µM. For the same compound, the TGI with OVCAR-3 ovarian is 53.4 µM; with OVCAR-5 ovarian, 49.7 µM; in the assay on SK-MEL-2 melanoma it was 44.5 µM; in the assay on SK-OV-3 ovarian, greater than 100 µM.
`Cc1ccc(S(=O)(=O)NC(CCC(=O)NNc2ccccc2)C(=O)NNc2ccccc2)cc1` (stereo not given): the TGI in the assay on BT-549 breast is greater than 100 µM; in the assay with CAKI-1 renal, greater than 100 µM; in the assay on COLO 205 colon, 54.1 µM; with HOP-92 NSCLC it was greater than 100 µM; in the assay on MDA-N, greater than 100 µM; in the assay on NCI-H522 lung, greater than 100 µM. Also, the TGI in the assay on OVCAR-3 ovarian is greater than 100 µM; in the assay with OVCAR-5 ovarian it was greater than 100 µM; in the assay with SK-MEL-2 melanoma, 83.2 µM; in the assay on SK-OV-3 ovarian, greater than 100 µM.
With `COc1cccc(N=N/C(=N/NC(=O)c2ccc(C)cc2)c2ccc(N(CCC#N)CCC#N)cc2OC)c1`, the TGI in the assay on BT-549 breast, in the assay with CAKI-1 renal, in the assay with COLO 205 colon, with HOP-92 NSCLC, with MDA-N and in the assay on NCI-H522 lung was greater than 100 µM throughout. The TGI was greater than 100 µM in the assay on OVCAR-3 ovarian, 39.1 µM with OVCAR-5 ovarian, greater than 100 µM in the assay on SK-MEL-2 melanoma and greater than 100 µM in the assay with SK-OV-3 ovarian.
Regarding `N#Cc1c(-c2ccc(Cl)cc2)cc(-c2ccc(Nc3ccnc4cc(Cl)ccc34)cc2)[nH]c1=O`, the TGI is 54.2 µM in the assay with BT-549 breast; greater than 100 µM in the assay on CAKI-1 renal; greater than 100 µM in the assay with COLO 205 colon; 61.2 µM in the assay on HOP-92 NSCLC; greater than 100 µM in the assay on MDA-N; greater than 100 µM in the assay with NCI-H522 lung. The TGI is greater than 100 µM with OVCAR-3 ovarian, greater than 100 µM in the assay on OVCAR-5 ovarian, greater than 100 µM in the assay on SK-MEL-2 melanoma and greater than 79 µM in the assay with SK-OV-3 ovarian.
For `Cc1c(C(=O)c2ccc(N)c3ccccc23)c2ccccc2n1CCN1CCOCC1`, the TGI was 80.1 µM in the assay on BT-549 breast; greater than 100 µM in the assay with CAKI-1 renal; 86.9 µM in the assay with COLO 205 colon; 75.6 µM in the assay with HOP-92 NSCLC; 55 µM with MDA-N; 58.4 µM with NCI-H522 lung. Besides, the TGI in the assay on OVCAR-3 ovarian was 41.3 µM; in the assay with OVCAR-5 ovarian it was 98.2 µM; in the assay on SK-MEL-2 melanoma it was 47.2 µM; with SK-OV-3 ovarian it was greater than 100 µM.
On to `COc1cc2cc(C(=O)N3CC(COS(C)(=O)=O)c4ccc(NC(=O)OCc5ccccc5)cc43)[nH]c2c(OC)c1OC` (stereo not given), for which the TGI in the assay with BT-549 breast, in the assay on CAKI-1 renal, in the assay on COLO 205 colon, in the assay on HOP-92 NSCLC, with MDA-N and in the assay with NCI-H522 lung was greater than 100 µM in each case. Moreover, the TGI with OVCAR-3 ovarian, in the assay on OVCAR-5 ovarian, in the assay with SK-MEL-2 melanoma and in the assay with SK-OV-3 ovarian was greater than 100 µM in each case.
`O=C(Nc1sccc1S(=O)(=O)c1ccc(Cl)cc1)c1ccc(F)cc1F`: the TGI with BT-549 breast was 46.8 µM; in the assay on CAKI-1 renal, 65.9 µM; in the assay on COLO 205 colon, greater than 100 µM; in the assay on HOP-92 NSCLC it was 42.5 µM; in the assay on MDA-N it was greater than 100 µM; in the assay with NCI-H522 lung, 51.9 µM. Besides, the TGI in the assay on OVCAR-3 ovarian was greater than 100 µM; in the assay on OVCAR-5 ovarian, 81.3 µM; in the assay on SK-MEL-2 melanoma, 39.5 µM; in the assay on SK-OV-3 ovarian it was 53.4 µM.
With `Fc1cccc(F)c1C1SCc2nc3cc(Cl)c(Cl)cc3n21` (stereo not given), the TGI in the assay with BT-549 breast, in the assay on CAKI-1 renal, with COLO 205 colon, in the assay with HOP-92 NSCLC, in the assay on MDA-N and in the assay on NCI-H522 lung was greater than 100 µM throughout. The TGI in the assay on OVCAR-3 ovarian, in the assay with OVCAR-5 ovarian, with SK-MEL-2 melanoma and in the assay with SK-OV-3 ovarian was greater than 100 µM throughout.
Consider `O=C(c1ccccc1)c1ccc2nc(-c3c(Cl)c(Cl)c(Cl)c(Cl)c3-c3nnc(-c4ccccc4)o3)[nH]c2c1`, for which the TGI is greater than 100 µM with BT-549 breast; greater than 100 µM with CAKI-1 renal; greater than 100 µM in the assay on COLO 205 colon; greater than 100 µM with HOP-92 NSCLC; 15.5 µM with MDA-N; 55.7 µM in the assay with NCI-H522 lung. Besides, the TGI with OVCAR-3 ovarian, with OVCAR-5 ovarian, in the assay on SK-MEL-2 melanoma and in the assay with SK-OV-3 ovarian was greater than 100 µM each time.
As to `FC(F)(F)c1cc(N(C2c3ccccc3C=Cc3ccccc32)P(Cl)Cl)cc(C(F)(F)F)c1`, the TGI was determined as 23 µM with BT-549 breast; 59 µM in the assay on CAKI-1 renal; 51.6 µM in the assay on COLO 205 colon; 30.4 µM in the assay with HOP-92 NSCLC; 76.9 µM in the assay with MDA-N; 28.6 µM in the assay with NCI-H522 lung. The TGI with OVCAR-3 ovarian is 31.1 µM; in the assay with OVCAR-5 ovarian, 49.6 µM; in the assay on SK-MEL-2 melanoma, 37 µM; with SK-OV-3 ovarian, 69.8 µM.
